According to patent US8476287B2, “3-hydroxy-5-arylisothiazole derivative” (Mochida Pharmaceutical Co., Ltd., priority 2009, dated 2013):

The compounds below were run against T1, GPR40 of human origin (Homo sapiens, UniProt O14842) (assay: Agonist action on GPR40 of human origin (Ca2+ fluorescence in CHO cells)). Settings: CHO cell strain stably expressing GPR40 of human origin; Ca2+ concentration fluctuation, fluorescent calcium indicator.
T1 construct: expressed in transfected cells
Assay type: cell-based
Description: A CHO cell strain stably expressing GPR40 of human origin was used to determine the agonist action of a subject compound. This cell strain was seeded in a clear bottom 96 well plate at 4×10^4 cells/100 μL/well. The cell strain was cultured in a CO2 incubator overnight using a Ham's F-12 medium containing a 10% fetal bovine serum, 100 U/mL penicillin, 0.1 mg/mL streptomycin, and 400 μg/mL Geneticin. Calcium 4 Assay Kit (Molecular Devices) was used as a fluorescent calcium indicator. One mL of 77 mg/mL probenecid (Invitrogen) was added to 100 mL of a calcium indicator solution to prepare a solution (loading solution) mixed with a 20 mM HEPES-containing Hanks' balanced salt solution (HBSS) in equal proportions. 200 μL of the loading solution was added to the cells from which the culture solution was removed, and the cells were cultured in a CO2 incubator for 1 hour. The subject compound was diluted with a 20 mM HEPES-containing HBSS and was added to the cells by 50 μL, and the fluctuation of the Ca^2+ concentration was measured by an intracellular ion analyzer. The EC50 value of the subject compound was calculated using the dose-response curve of fluorescence intensity variation.

T1 sequence (O14842 whole entry): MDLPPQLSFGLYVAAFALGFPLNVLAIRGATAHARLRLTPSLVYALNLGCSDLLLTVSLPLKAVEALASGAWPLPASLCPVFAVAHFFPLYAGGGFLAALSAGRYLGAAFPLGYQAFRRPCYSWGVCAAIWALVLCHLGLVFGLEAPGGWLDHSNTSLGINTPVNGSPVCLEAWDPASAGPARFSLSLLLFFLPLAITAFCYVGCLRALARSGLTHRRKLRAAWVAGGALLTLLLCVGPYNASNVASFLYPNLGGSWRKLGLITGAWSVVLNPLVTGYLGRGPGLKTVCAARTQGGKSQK

Row | EC50 [nM] | Structure (SMILES)
1 | < 300 | Cc1cc(OCCCN2CCCC2=O)cc(C)c1-c1cccc(COc2ccc(-c3cc(O)n[s+]3[O-])cc2)c1 (centres unmarked) [Example 33]
2 | < 300 | Cc1cc(OCCCN2CCCC2=O)nc(C)c1-c1cccc(COc2ccc(-c3cc(O)n[s+]3[O-])cc2)c1 (centres unmarked) [Example 35, 5-(4-((3-(2,4-dimethyl-6-(3-(2-oxopyrrolidin-1-yl)propoxy)pyridin-3-yl)phenyl)methoxy)phenyl)isothiazol-3-ol 1-oxide(A)]
3 | 300 to 3000 | Cc1nc(OCCCN2CCCC2=O)nc(C)c1-c1cccc(COc2ccc(-c3cc(O)n[s+]3[O-])cc2)c1C (centres unmarked) [Example 37, 5-(4-((3-(4,6-dimethyl-2-(3-(2-oxopyrrolidin-1-yl)propoxy)pyrimidin-5-yl)-2-methylphenyl)methoxy)phenyl)isothiazol-3-ol 1-oxide(A)]
4 | < 300 | Cc1cc(OCC2(C)COC2)cc(C)c1-c1cccc(COc2ccc(-c3cc(O)n[s+]3[O-])cc2)c1C (centres unmarked) [Example 42, 5-(4-((3-(2,6-dimethyl-4-((3-methyl-3-oxetanyl)methoxy)phenyl)-2-methylphenyl)methoxy)phenyl)isothiazol-3-ol 1-oxide(A)]
5 | < 300 | Cc1cc(OCC2(C)COC2)c(F)c(C)c1-c1cccc(COc2ccc(-c3cc(O)n[s+]3[O-])cc2)c1 (centres unmarked) [Example 43]
6 | < 300 | Cc1cc(OCCCS(C)(=O)=O)cc(C)c1-c1cccc(COc2ccc(-c3cc(O)n[s+]3[O-])cc2)c1 (centres unmarked) [Example 44, 5-(4-((3-(2,6-dimethyl-4-(3-(methylsulfonyl)propoxy)phenyl)phenyl)methoxy)phenyl)isothiazol-3-ol 1-oxide(A)]
7 | < 300 | Cc1cc(OCCCO)cc(C)c1-c1cccc(COc2ccc(-c3cc(O)n[s+]3[O-])cc2)c1 (centres unmarked) [Example 47, 5-(4-((3-(2,6-dimethyl-4-(3-hydroxypropoxy)phenyl)phenyl)methoxy)phenyl)isothiazol-3-ol 1-oxide(A)]
8 | < 300 | Cc1cc(OCCCO)nc(C)c1-c1cccc(COc2ccc(-c3cc(O)n[s+]3[O-])cc2)c1 (centres unmarked) [Example 49, 5-(4-((3-(2,4-dimethyl-6-(3-hydroxypropoxy)pyridin-3-yl)phenyl)methoxy)phenyl)isothiazol-3-ol 1-oxide(A)]
9 | < 300 | Cc1cc(OCCO)cc(C)c1-c1cccc(COc2ccc(-c3cc(O)n[s+]3[O-])cc2)c1C (centres unmarked) [Example 51, 5-(4-((3-(2,6-dimethyl-4-(2-hydroxyethoxy)phenyl)-2-methylphenyl)methoxy)phenyl)isothiazol-3-ol 1-oxide(A)]
10 | 300 to 3000 | Cc1nc(OCCO)ccc1-c1cccc(COc2ccc(-c3cc(O)n[s+]3[O-])cc2)c1C (centres unmarked) [Example 52, 5-(4-((3-(2-methyl-6-(2-hydroxyethoxy)pyridin-3-yl)-2-methylphenyl)methoxy)phenyl)isothiazol-3-ol 1-oxide(A)]
11 | < 300 | Cc1cc(OC[C@H](O)CO)cc(C)c1-c1cccc(COc2ccc(-c3cc(O)n[s+]3[O-])cc2)c1 (stereo partly drawn) [Example 55, 5-(4-((3-(4-((2R)-2,3-dihydroxypropoxy)-2,6-dimethylphenyl)phenyl)methoxy)phenyl)isothiazol-3-ol 1-oxide(A)]
12 | < 300 | Cc1cc(OC[C@H](O)CO)c(F)c(C)c1-c1cccc(COc2ccc(-c3cc(O)n[s+]3[O-])cc2)c1 (stereo partly drawn) [Example 59, 5-(4-((3-(4-((2R)-2,3-dihydroxypropoxy)-2,6-dimethyl-3-fluorophenyl)phenyl)methoxy)phenyl)isothiazol-3-ol 1-oxide(A)]

Row | Structure (SMILES) | EC50 [nM]
13 | Cc1cc(OCCC(C)(C)O)cc(C)c1-c1cccc(COc2ccc(-c3cc(O)n[s+]3[O-])cc2)c1C (centres unmarked) [Example 31, 5-(4-((3-(2,6-dimethyl-4-(3-hydroxy-3-methylbutoxy)phenyl)-2-methylphenyl)methoxy)phenyl)isothiazol-3-ol 1-oxide(A)] | < 300
14 | Cc1cc(OCC[C@H](C)O)cc(C)c1-c1cccc(COc2ccc(-c3cc(O)n[s+]3[O-])cc2)c1C (stereo partly drawn) [Example 61, 5-(4-((3-(2,6-dimethyl-4-((3S)-3-hydroxybutoxy)phenyl)-2-methylphenyl)methoxy)phenyl)isothiazol-3-ol 1-oxide(A)] | < 300
